From patent US9907762B2, “Stabilized mutant opsin proteins” (University of Washington, priority 2003, dated 2018)
Entries after “also recorded” stand apart in the source; their conditions may differ.

What was measured:
wild-type opsin [1] = target: T1, wild-type opsin (Bos taurus, UniProt P02699); test: Photosensitivity studies; assay type: biochemical
T1 construct: expressed in transfected cells

wild-type opsin [2] = target: T1, wild-type opsin; test: Immunocytochemistry, localization in HEK293 cells; assay type: cell-based; conditions: immunofluorescence
Experimental: HEK293 cells expressing wild-type rhodopsin or P23H-opsin under a tetracycline-inducible promoter were cultured in Dulbecco's modified Eagle's medium (Invitrogen). The cells were attached to glass bottom microwell dishes (MatTek Corp.) with Cell-Tak (Becton Dickinson Labware). Expression of opsin or P23H-opsin was induced by the addition of 1 μg/ml tetracycline as recommended by the manufacturer's protocol (Invitrogen). The cells were treated with 50 μM 11-cis-7-ring retinal 2 hours after induction. The cells were harvested after 24 hours and fixed with 4% paraformaldehyde (Fisher) in PBS (136 mM NaCl, 11.4 mM sodium phosphate, pH 7.4) for 10 minutes and washed by PBS. To block nonspecific labeling, the cells were incubated in 1.5% normal goat serum (Vector Lab., Inc.) in PBST (136 mM NaCl, 11.4 mM sodium phosphate, 0.1% Triton X-100, pH 7.4) for 15 minutes at room temperature. The cells were incubated overnight at 4° C. in purified 1D4 antibody diluted with PBST. The sections were rinsed in PBST and incubated with indocarbocyanine (Cy3)-conjugated goat anti-mouse IgG (Jackson ImmunoResearch Lab., Inc.) and Hoechst 33342 dye (Molecular Probes). […] For confocal imaging, the cells were analyzed on a Zeiss LSM510 laser scanning microscope (Carl Zeiss, Inc.).

wild-type opsin [3] = target: T1, wild-type opsin; test: Thermostability of pigments; assay type: biochemical; conditions: incubation at either 4° C. or 37° C.
wild-type opsin [4] = target: T1, wild-type opsin; test: Pigment formation, retinals added to cell culture medium during opsin biosynthesis; assay type: cell-based; conditions: for pigment formation with wild-type opsin: retinal 50 μM added during biosynthesis; for absorbance max of the pigment formed with wild-type opsin: retinal added during biosynthesis, immunoaffinity purified
Source text: (§1) For the construction and selection of tetracycline-inducible opsin cell lines, an Invitrogen T-REx™ system was used. Briefly, nucleic acids encoding wild-type opsin and the P23H mutant were excised as EcoRI-NotI fragments from pMT4 and then cloned into the EcoRI-NotI site within the polylinker of pcDNA4. Using opsin-specific forward and reverse primers, the entire gene was sequenced for verification. These plasmids were then separately transfected by calcium-phosphate precipitation into T-REx™-293 cells that already stably expressed the tetracycline repressor; these cells were routinely grown under blasticidin selection. After transfection, zeocin was added to the culture medium, and surviving colonies of cells were isolated and subsequently expanded into larger 6-well plates. Each of these clones was exposed to tetracycline, and 48 hours after induction, the cells were harvested and solubilized with 1% DM. Separately, uninduced cells were also solubilized. The samples were run on SDS-PAGE and immunoblotted with the monoclonal antibody 1D4. Cell lines were chosen on the basis of production of the least amount of opsin (i.e., nondetectable opsin levels on immunoblots) in the absence of tetracycline and moderate amounts of opsin in the presence of the drug. HEK293 cells were grown in Dulbecco's modified Eagle's medium containing high glucose (Invitrogen) at 37° C. in the presence of 5.0% CO2. In all of the studies, the cells were harvested after 48 hours of induction with tetracycline (1 μg/ml).
(§2) The cells were washed three times with PBS, harvested, and incubated with different analogs of 11-cis-retinal (50 μM) for 45 minutes at 4° C. The cells were then lysed with 1.0% n-dodecyl-maltoside (DM) (Anatrace) in the presence of protease inhibitors (complete protease inhibitor mixture tablets; Roche Molecular Biochemicals) and centrifuged at 36,000 rpm in a Beckman ultracentrifuge for 30 minutes at 4° C. The supernatant was incubated with 1D4-coupled CNBr-activated Sepharose 4B (Pharmacia Corp.) beads overnight. The beads were then washed three times with PBS containing 0.1% DM. Bound pigments were eluted off the beads using 0.1 mM synthetic peptide (last 9 amino acid residues of the C terminus of rhodopsin) in 0.1% DM. In studies when retinoids (50 μM) were added during biosynthesis, a Me2SO solution of retinoids (10 μl of 100 mM) was added directly to the cell culture medium after 2 and 24 hours of induction. The cells were harvested at 48 hours and lysed with 1.0% DM. Pigment was purified by immunoaffinity chromatography. The UV-visible spectra of the eluted pigment samples were then recorded on a Perkin Elmer Lambda 800 UV-visible spectrophotometer in the range of 250-650 nm.

P23H-opsin [5] = target: T2, P23H-opsin (Bos taurus, UniProt P02699, P23H); test: Pigment regeneration, retinals added to harvested cells/cell membranes; assay type: biochemical; conditions: retinal added after the cells were harvested
T2 construct: expressed in transfected cells
Source text: as §1, §2

wild-type opsin [6] = target: T1, wild-type opsin; test: as above; assay type: biochemical; conditions: retinal 50 μM added to harvested cells, 45 minutes at 4° C.
Source text: as §1, §2

P23H-opsin [7] = target: T2, P23H-opsin; test: Pigment formation, retinals added to cell culture medium during opsin biosynthesis; assay type: cell-based; conditions: for pigment formation / rescue of folding of P23H-opsin: retinal 50 μM added during biosynthesis; for absorbance max of the pigment formed with P23H-opsin: retinal added during biosynthesis, immunoaffinity purified
P23H-opsin [8] = target: T2, P23H-opsin; test: Retinoid analysis of the bound chromophore (HPLC, spectrophotometry); assay type: binding
Experimental: (§3) The mixture was kept at room temperature for 30 min, and then 400 μl of MeOH and 400 μl of hexane were added. The mixture was shaken on a vortex for 5 minutes and centrifuged at 14,000 rpm to separate layers. The hexane layer was collected. Another 400 μl of hexane was added to the aqueous layer, and extraction was repeated. Combined hexane layers were dried down and redissolved in 120 μl of hexane, and 100 μl fractions were analyzed by normal phase HPLC as previously described.

wild-type opsin [9] = target: T1, wild-type opsin; test: as above; assay type: binding
Experimental: as §3

P23H-opsin [10] = target: T2, P23H-opsin; test: Glycosylation status by immunoblotting; assay type: cell-based; conditions: retinal added during biosynthesis, immunoblot
Experimental: The samples were loaded on 10% SDS-polyacrylamide gels and transferred to Immobilon-NC membrane (Millipore) according to established protocols. The membranes were blocked with blocking buffer (Licor) for 1 hour and incubated at room temperature with 1D4 antibody (1:1000) for 1 hour. […] The membranes were then washed with PBS containing Tween 20 and scanned using an Odyssey Infrared imager (Licor).
The samples were incubated at 37° C. for 16 hours and then loaded onto a 10% polyacrylamide gel. The immunoblots were developed as described above.

P23H-opsin [11] = target: T2, P23H-opsin; test: Immunocytochemistry, localization in HEK293 cells; assay type: cell-based; conditions: immunofluorescence
Experimental: HEK293 cells expressing wild-type rhodopsin or P23H-opsin under a tetracycline-inducible promoter were cultured in Dulbecco's modified Eagle's medium (Invitrogen). The cells were attached to glass bottom microwell dishes (MatTek Corp.) with Cell-Tak (Becton Dickinson Labware). Expression of opsin or P23H-opsin was induced by the addition of 1 μg/ml tetracycline as recommended by the manufacturer's protocol (Invitrogen). […] The cells were harvested after 24 hours and fixed with 4% paraformaldehyde (Fisher) in PBS (136 mM NaCl, 11.4 mM sodium phosphate, pH 7.4) for 10 minutes and washed by PBS. To block nonspecific labeling, the cells were incubated in 1.5% normal goat serum (Vector Lab., Inc.) in PBST (136 mM NaCl, 11.4 mM sodium phosphate, 0.1% Triton X-100, pH 7.4) for 15 minutes at room temperature. The cells were incubated overnight at 4° C. in purified 1D4 antibody diluted with PBST. The sections were rinsed in PBST and incubated with indocarbocyanine (Cy3)-conjugated goat anti-mouse IgG (Jackson ImmunoResearch Lab., Inc.) and Hoechst 33342 dye (Molecular Probes). The cells were rinsed in PBST and mounted in 50 μl of 2% 1,4-diazabicyclo-[2.2.2]octane (Sigma) in 90% glycerol to retard photobleaching. For confocal imaging, the cells were analyzed on a Zeiss LSM510 laser scanning microscope (Carl Zeiss, Inc.).

[12] = cell membranes, after photobleaching
[13] = mixture of the four 7-ring retinal isomers added during biosynthesis

Row | Molecule | pigment formation with wild-type opsin (wild-type opsin [4]) | pigment formation with P23H-opsin in cell membranes (P23H-opsin [5]) | regeneration of wild-type rhodopsin in cell membranes (wild-type opsin [6]) | pigment formation / rescue of folding of P23H-opsin (P23H-opsin [7]) | absorbance max of the pigment formed with wild-type opsin (wild-type opsin [4]) | glycosylation of P23H-opsin (P23H-opsin [10]) | absorbance max of the pigment formed with P23H-opsin (P23H-opsin [7]) | further results
1 | 7-rhodopsin: rhodopsin (wild-type opsin) regenerated with 11-cis-7-ring retinal |  |  |  |  |  |  |  | stability to light in cell membranes (wild-type opsin [1]; HEK293 cell membranes, 20 minutes light): not bleached by light; stability to light, purified in detergent (wild-type opsin [1]; purified pigment in detergent): stable to light; cellular localization of wild-type opsin pigment (wild-type opsin [2]): found predominantly at the plasma membrane; temperature stability of purified pigment (wild-type opsin [3]): no change in the amount of chromophore
2 | 11-cis-6-ring retinal | recombined with wild-type opsin | only a small amount of pigment was formed | regeneration | No significant pigment; also recorded: lack of activity |  |  |  | 
3 | 11-cis-7-ring retinal | recombined with wild-type opsin | only a small amount of pigment was formed | regeneration | significant amounts of pigment | approximately 500±3 nm | Golgi-associated glycosylation pattern similar to the wild-type protein | approximately 490±3 nm | substitution of bound chromophore by added 11-cis-retinal (P23H-opsin [8]; [12]): did not lead to its substitution; isomer bound by P23H-opsin (P23H-opsin [8]; [13]): selectively bound; substitution of bound chromophore by added 11-cis-retinal (wild-type opsin [9]; [12]): did not lead to its substitution; isomer bound by wild-type opsin (wild-type opsin [9]; [13]): selectively bound; fraction of P23H-opsin folded to form pigment (rescued) (P23H-opsin [7]; selective elution of folded form, 10 mM phosphate, pH 6.0, spectra and immunoblots): approximately 80%
4 | 11-cis-9-demethyl-7-ring retinal |  |  |  | ineffective in pigment formation |  |  |  | pigment formation / rescue of folding of P23H-opsin (P23H-opsin [7]; listed as 11-cis-9-demethyl-ring retinal): lack of activity
5 | CC1=C(/C=C/C(C)=C\C=C\C(C)=C\C=O)C(C)(C)CCC1 [9-cis-retinal] |  |  |  |  |  |  |  | cellular localization of P23H-opsin (P23H-opsin [11]): promoted transport of P23H-opsin to the cell surface
6 | CC1=C(/C=C/C(C)=C/C=C/C(C)=C/C=O)C(C)(C)CCC1 [11-cis-retinal] | regeneration | only a small amount of pigment was formed | regeneration | induce the in vivo folding and stabilization of P23H-opsin | 499 nm | acquired a mature state of glycosylation | 492 nm | 
